These are literature values, as cited in US20080139609A1, “GRANISETRON COMPOSITIONS” (priority 2006, published 2008).

Data set [1] has as its system other serotonin receptors. To be noted: selective 5-HT3 receptor antagonist.
For data set [2] the following is noted: in water and in normal saline at 20° C.

The structures appear in SMILES notation.

Take `CN1C2CCCC1CC(NC(=O)c1nn(C)c3ccccc13)C2` (centres unmarked) [Granisetron]: in data set [1], the “Affinity for other serotonin receptors” value is recorded as “little or no affinity”.

Turning to `CN1C2CCCC1CC(NC(=O)c1nn(C)c3ccccc13)C2.Cl` (stereo not drawn) [Granisetron hydrochloride, endo-N-(9-methyl-9-azabicyclo[3.3.1]non-3-yl)-1-methyl-1H-indazole-3-carboxamide hydrochloride], the Solubility result in data set [2] is reported as “readily soluble”.
